Where a SMILES comes first, the peptide text is derived from it.
Tests used:
COL1A1 = assay: In vitro efficacy in semi-activated LX2 cells, qPCR: COL1A1; format: cell-based; conditions: 48 hours, Q-PCR; for inhibition at 50 µM: Homo sapiens, LX-2, 50 µM, read-out: COL1A1 mRNA inhibition rate
Method: (§1) Test compounds were added to the LX-2 cells respectively, and total RNA in the cells was extracted 48 hours later. This experiment was performed strictly in accordance with the instructions of the Total RNA Kit. The steps were as follows (note: this experiment was performed on ice throughout the entire process, and special RNase-free tips were used throughout the entire process): • 1) The 12-well cell culture plate was taken out from the incubator, the cell culture medium was discarded, the cells were washed twice with 1 mL of 1×PBS, and a negative pressure suction device was used to fully remove PBS; • 2) 350 μL of TRK Lysis Buffer mixture/well was prepared as needed (mixture preparation method: 1 mL of TRKLysis Buffer+20 μL of β-mercaptoethanol), vortexed and mixed well. 350 μL was added to each well of the 12-well cell culture plate, and allowed to stand at room temperature for 5 minutes to fully lyse the cells; • 3) 70% ethanol/well was prepared as needed, vortexed and mixed well. 350 μL was added to each well of the 12-well cell culture plate, mixed well by shaking, and transferred to the spin column (spin column+collection tube were assembled); • 4) Centrifugation was performed at 4° C., 12000 g for 60 sec. The waste liquid was discarded after centrifugation, while the spin column was kept; • 5) 500 μL of RNA Wash Buffer I was added, centrifuged at 4° C., 12000 g for 60 sec, the waste liquid was discarded after centrifugation, and the collection column was kept; • 6) 500 μL of RNA Wash Buffer II (confirmed that ethanol had been added) was added, centrifuged at 4° C., 12000 g for 60 sec, the waste liquid was discarded after centrifugation, and the collection column was kept; • 7) step 6) was repeated once again, centrifugation was performed at 4° C., 12000 g for 90 sec, the waste liquid was discarded after centrifugation, and the collection column was kept; • 8) Centrifugation was performed at 4° C., 12000 g for 120 sec to ensure that the spin column was fully dried; • 9) The dried spin column was inserted into a new 1.5 mL EP tube, and 30 μL of DEPC water was added to the membrane in the center of the spin column. It should be careful not to touch the EP tube cover in this step. It was allowed to stand at room temperature for 5 minutes to ensure that the RNA was fully dissolved in DEPC water. Centrifugation was performed at 4° C., 12000 g for 60 sec, and the EP tube was kept; • 10) NanoDrop ultra-micro-volume spectrophotometer was used to detect RNA concentration;
(§2) 5.2 Reverse transcription of RNA into cDNA: According to the instructions of PrimeScript™ RT reagent Kit (Perfect Real Time), the specific experimental steps were as follows:
(§3) 5.3 Q-PCR detection of target gene expression: According to the instructions of Power SYBR® Green PCR Master Mix, the specific operations were as follows:
(§4) After the reaction was completed, the amplification curve and dissolution curve of Q-PCR were confirmed, and the relative quantification method ([…]) was used to perform data analysis on the experimental results.
(§5) LX2 cells were passaged and plated normally. […] After 48 hours, the cells were collected, total RNA was extracted, and Q-PCR was used to detect the changes in the mRNA expression levels of liver fibrosis-related genes (ACTA2 encoding α-SMA, COL1A1 and COLIA2 encoding collagen I, COL3A1 encoding collagen III, SMAD3 encoding Smad3) and inflammation-related genes (IL1β encoding IL-1β, TNFα encoding TNFα) (for specific methods, see 5. Q-PCR detection of target gene expression as described above). α-SMA was a marker of hepatic stellate cell activation, and collagen I and collagen III were the main components of extracellular matrix deposition.

[1] = system: liver fibrosis-related genes; assay: Semi-activated LX2 cells, qPCR: liver fibrosis-related genes overall; format: cell-based; conditions: 48 hours, Q-PCR, Table 2
Method: as §1, §3
(§6) LX2 cells were passaged and plated normally. After adherent growth for 12 hours, 50 µM of the test compound was added. After 48 hours, the cells were collected, total RNA was extracted, and Q-PCR was used to detect the changes in the mRNA expression levels of liver fibrosis-related genes (ACTA2 encoding α-SMA, COL1A1 and COLIA2 encoding collagen I, COL3A1 encoding collagen III, SMAD3 encoding Smad3) and inflammation-related genes (IL1β encoding IL-1β, TNFα encoding TNFα) (for specific methods, see 5. Q-PCR detection of target gene expression as described above). α-SMA was a marker of hepatic stellate cell activation, and collagen I and collagen III were the main components of extracellular matrix deposition.

[2] = system: collagen I and collagen III; assay: Semi-activated LX2 cells, qPCR: collagen I and collagen III at the mRNA level; format: cell-based; conditions: 48 hours, Q-PCR, Table 2
Method: as §1, §3
as §6, with “deposition. […]” for “deposition.”

α-SMA [3] = assay: In vitro efficacy in semi-activated LX2 cells, qPCR: α-SMA; format: cell-based; conditions: 48 hours, Q-PCR; for inhibition at 50 µM: read-out: α-SMA mRNA inhibition rate; for inhibition of the expression of α-SMA at the mRNA level: Table 2
Method: as §1, §2, §3, §4, §5

COL3A1 = assay: In vitro efficacy in semi-activated LX2 cells, qPCR: COL3A1; format: cell-based; conditions: 48 hours, Q-PCR; for inhibition at 50 µM: Homo sapiens, LX-2, 50 µM, read-out: COL3A1 mRNA inhibition rate
Method: as §1, §2, §3, §4, §5

TNF-α = assay: In vitro efficacy in semi-activated LX2 cells, qPCR: TNF-α; format: cell-based; conditions: Q-PCR; for inhibition at 50 µM: Homo sapiens, LX-2, 48 hours, read-out: TNF-α mRNA inhibition rate
Method: as §1, §2, §3, §4, §6

COL1A2 = assay: In vitro efficacy in semi-activated LX2 cells, qPCR: COL1A2; format: cell-based; conditions: Q-PCR; for inhibition at 50 µM: Homo sapiens, LX-2, 48 hours, read-out: COL1A2 mRNA inhibition rate
Method: as §1, §2, §3, §4, §6

Smad3 = assay: In vitro efficacy in semi-activated LX2 cells, qPCR: Smad3; format: cell-based; conditions: 48 hours, Q-PCR; for inhibition of the expression of Smad3 at the mRNA level: Table 2; for inhibition at 50 µM: Homo sapiens, LX-2, 50 µM, read-out: Smad3 mRNA inhibition rate
Method: as §1, §2, §3, §4, §5

IL-1β = assay: In vitro efficacy in semi-activated LX2 cells, qPCR: IL-1β; format: cell-based; conditions: 48 hours, Q-PCR; for inhibition at 50 µM: Homo sapiens, LX-2, 50 µM, read-out: IL-1β mRNA inhibition rate
Method: as §1, §2, §3, §4, §5

α-SMA [4] = assay: Semi-activated LX2 cells, Western blot: α-SMA protein; format: cell-based; conditions: 50-400 μM, 48 hours, FIG. 2, vs 50 μM aspartic acid
[5] = Pharmacokinetic testing in rats; format: in vivo, SD rats; conditions: male, SD, rat, plasma, PO 20 mg/kg
Method: Rats were used as test animals to study the pharmacokinetic behavior of the following compounds in rat plasma.
The drugs were self-made according to the examples of the present invention.
SD rats, 6-8 weeks old, 3 for each administration method/example, male.
The animals were fasted overnight, ate food 8 hours after taking the drug, and drank water freely.
Blood was collected before administration and at 5 min, 15 min, 30 min, 1 hr, 2 hr, 4 hr, 8 hr and 24 hr after administration.
The blood was placed on wet ice and centrifuged to obtain plasma sample (2000 g, 5 min at 4° C.).
The LC-MS/MS method was used to determine the blood drug concentration. The HPLC conditions were: mobile phase A: H2O-0.5% FA; mobile phase B: ACN-0.5% FA;
WinNonlin 8.2 non-compartmental model was used to estimate pharmacokinetic parameters (PK parameters, including but not limited to peak concentration (Cmax), time to peak (Tmax), terminal elimination rate (Ke), terminal elimination half-life (T1/2), area under drug-time curve (AUC), clearance rate (CL), apparent volume of distribution (Vd), mean residence time (MRT), bioavailability (F), etc.).

Structure (SMILES)	inhibition at 50 µM (COL1A1)	inhibition of the expression of collagen I and collagen III at the mRNA level [2]	inhibition at 50 µM (α-SMA [3]; 50 µM)	inhibition at 50 µM (COL3A1)	inhibition at 50 µM (TNF-α)	inhibition at 50 µM (COL1A2)	inhibition at 50 µM (Smad3)	inhibition at 50 µM (IL-1β)	other results
COC(=O)[C@H](CC(=O)O)NC(=O)OC(C)(C)C [Compound 26]	25 to 50%	could inhibit	10 to 25%	25 to 50%	10 to 25%	1 to 10%	10 to 25%		inhibition of the mRNA expression levels of liver fibrosis-related genes (overall) [1]: stronger effects; inhibition of the expression of α-SMA at the mRNA level (α-SMA [3]): could inhibit; inhibition of the expression of Smad3 at the mRNA level (Smad3): could inhibit
COC(=O)N[C@@H](CC(=O)O)C(=O)O [Compound 61, (methoxycarbonyl)-L-aspartic acid]	25 to 50%	could inhibit		1 to 10%	1 to 10%	1 to 10%	1 to 10%	1 to 10%	
CCC(=O)N[C@@H](CC(=O)O)C(=O)O [Compound 58, propionyl-L-aspartic acid]			1 to 10%	1 to 10%		1 to 10%		1 to 10%	
C=CCOC(=O)[C@H](CC(=O)O)NC(=O)OCC1c2ccccc2-c2ccccc21 [Compound 10]	1 to 10%	could inhibit	1 to 10%	10 to 25%	10 to 25%	1 to 10%	1 to 10%	1 to 10%	
CCOC(=O)C[C@H](N)C(=O)OCC.Cl [Compound 12]		could inhibit							COL1A1 mRNA inhibition rate (COL1A1; 50 µM): C (C represented that the inhibition rate was 25% to 50%); inhibition of the mRNA expression levels of liver fibrosis-related genes (overall) [1]: stronger effects; IL-1β mRNA inhibition rate (IL-1β; 50 µM): E (E represented that the inhibition rate was 1% to 10%); α-SMA mRNA inhibition rate (α-SMA [3]; 50 µM): E (E represented that the inhibition rate was 1% to 10%); COL3A1 mRNA inhibition rate (COL3A1; 50 µM): C (C represented that the inhibition rate was 25% to 50%); TNF-α mRNA inhibition rate (TNF-α; 50 µM, 48 hours): D (D represented that the inhibition rate was 10% to 25%); COL1A2 mRNA inhibition rate (COL1A2; 50 µM, 48 hours): E (E represented that the inhibition rate was 1% to 10%); Smad3 mRNA inhibition rate (Smad3; 50 µM): D (D represented that the inhibition rate was 10% to 25%); inhibition of the expression of Smad3 at the mRNA level (Smad3): could inhibit
CC(C)(C)OC(=O)C[C@H](N)C(=O)O [Compound 13]			1 to 10%		1 to 10%	1 to 10%		1 to 10%	
CC(C)(C)OC(=O)C[C@H](N)C(=O)OC(C)(C)C [Compound 41]				1 to 10%				1 to 10%	inhibitory effect on α-SMA protein as compared to ASP (α-SMA [4]): stronger inhibitory effects
N[C@@H](CC(=O)OC1CCCCC1)C(=O)O [Compound 23]	1 to 10%			1 to 10%	1 to 10%	1 to 10%	1 to 10%	1 to 10%	
NCC(=O)N[C@@H](CC(=O)O)C(=O)O [Compound 28] (H-Gly-Asp-OH)	10 to 25%	could inhibit	10 to 25%	10 to 25%	1 to 10%	1 to 10%	10 to 25%	10 to 25%	inhibition of the expression of α-SMA at the mRNA level (α-SMA [3]): could inhibit; inhibition of the expression of Smad3 at the mRNA level (Smad3): could inhibit
O=C(O)C[C@H](NC(=O)OCc1ccccc1)C(=O)O [Compound 2]	25 to 50%	could inhibit	1 to 10%	10 to 25%	10 to 25%	1 to 10%	1 to 10%	1 to 10%	
CNC(=O)C[C@H](N)C(=O)O [Compound 33]	25 to 50%	could inhibit	25 to 50%	1 to 10%		1 to 10%	1 to 10%	1 to 10%	inhibition of the expression of α-SMA at the mRNA level (α-SMA [3]): could inhibit
CC(=O)N[C@@H](CC(=O)O)C(=O)O [Compound 30]	25 to 50%	could inhibit	1 to 10%			1 to 10%		10 to 25%	
N[C@@H](CC(=O)O)C(=O)N[C@@H](Cc1ccccc1)C(=O)O [Compound 39] (H-Asp-Phe-OH)				1 to 10%	1 to 10%	1 to 10%			
N[C@@H](CC(=O)O)C(=O)O [Aspartic acid, aspartic acid]									AUC(0-t) [5]: 26700 ng·h/mL; Tmax [5]: 24 h; Cmax ([5]; read-out: Cmax): 1960 ng/mL
